Tests used:
Assay type in all cases: in vivo
[1] = test system: heart rate in rat under anesthesia; experiment: Action on heart rate in rat under anesthesia (intravenous administration); conditions: anesthetized male Sprague-Dawley (IGS) rats, intravenous over 30 sec, up to the dose of 0.03 mg/kg body weight, 1-15 minutes after administration
Procedure: Action on Heart Rate in Rat Under Anesthesia
Male Sprague-Dawley (IGS) rats were anesthetized by intraperitoneal administration of Nembutal (manufactured by Dainippon Sumitomo Pharma Co., Ltd.), and fixed at the dorsal position. Electrodes were mounted on four limbs, and the electrocardiogram was measured according to Standard Limb Lead II using an electrocardiogram amplifier (AC-601G, manufactured by NIHON KOHDEN CORPORATION). With the electrocardiographic wave as a trigger, the heart rate was measured with an instantaneous heart rate unit (AT-601G, manufactured by NIHON KOHDEN CORPORATION). The test compound was dissolved in 20% cyclodextrin (manufactured by Nihon Shokuhin Kako Co., Ltd.) and intravenously administered at a dose of 0.001-10 mg/kg body weight over 30 sec. The heart rate was measured before administration, and 1, 2, 3, 4, 5, 10 and 15 minutes after the administration.

[2] = test system: peripheral blood lymphocyte number; experiment: Peripheral blood lymphocyte number decreasing action in rat; conditions: male F344 rats, oral, 24 hr after administration, read-out: ED50 (dose necessary for reducing the lymphocyte count of the vehicle group (100%) by 50%)
heart rate in rat = experiment: Action on heart rate in rat (telemetry, oral administration); conditions: male Crl:CD(SD) rats, up to the dose of 30 mg/kg body weight, measured to 24 hr after administration
Procedure: Action on Heart Rate in Rat
Male Crl:CD(SD) rats were anesthetized by intraperitoneal administration of Nembutal (manufactured by Dainippon Sumitomo Pharma Co., Ltd.), and a pressure sensor connected to a telemetry transmitter (TL11M2-C50-PTX, manufactured by Data Sciences International) was inserted into the abdominal aorta and a transmitter was subcutaneously placed in the abdomen. The blood pressure and heart rate data were recorded by an analysis software (Dataquest A.R.T., manufactured by Data Sciences International) via a receiver (RPC-1, manufactured by Data Sciences International). After confirmation of recovery of circadian rhythm of the heart rate, the rats were subjected to the experiment. The compound of the present invention was suspended in 0.5% hydroxypropylmethylcellulose (manufactured by Shin-Etsu Chemical Co., Ltd.) and orally administered. The heart rate was measured from 72 hr before the administration to 24 hr after the administration.

[3] = test system: peripheral blood lymphocyte number; experiment: Peripheral blood lymphocyte number decreasing action in mouse; conditions: ip, male BALB/cAnNCrj mice, intraperitoneal, 24 hr after administration, read-out: ED50 (dose necessary for reducing the lymphocyte count of the vehicle group (100%) by 50%)

SMILES	Effect on heart rate as compared to the value before administration [1]	ED50 [2]	Effect on heart rate (heart rate in rat)	ED50 [3]
NC(/C=C/c1ccc(OCCCc2ccccc2)c(C(F)(F)F)c1)(CO)COP(=O)(O)O (stereo not drawn) [compound 192-2, (E)-2-amino-4-[4-(3-phenylpropoxy)-3-trifluoromethylphenyl]-2-(phosphoryloxymethyl)-3-butenol]	did not reduce the heart rate of the rat by 20% or more	–	–	–
NC(CO)(CCc1ccc(OCCCc2ccc(OC(F)(F)F)cc2)c(C(F)(F)F)c1)COP(=O)(O)O (stereo not drawn) [Compound 153-2, 2-amino-2-(phosphoryloxymethyl)-4-{4-[3-(4-trifluoromethoxyphenyl)propoxy]-3-trifluoromethylphenyl}butanol]	did not reduce the heart rate of the rat by 20% or more	–	–	–
C[C@](N)(CO)CCc1ccc(OCCCc2ccc(C(F)(F)F)cc2)c(C(F)(F)F)c1.Cl [Compound 29-1, (R)-2-amino-2-methyl-4-{3-trifluoromethyl-4-[3-(4-trifluoromethylphenyl)propoxy]phenyl}butanol hydrochloride]	–	0.03 mg/kg	–	–
Cl.NC(CO)(CO)CCc1ccc(OCCCc2cccc(C(F)(F)F)c2)c(C(F)(F)F)c1 [Compound 12-4, 2-amino-2-(2-{3-trifluoromethyl-4-[3-(3-trifluoromethylphenyl)propoxy]phenyl}ethyl)propane-1,3-diol hydrochloride]	–	0.11 mg/kg	did not reduce the heart rate	0.04 mg/kg
CC[C@](N)(CO)CCc1ccc(OCCCc2ccc(C(F)(F)F)cc2)c(C(F)(F)F)c1.Cl [Compound 32-1, (R)-2-amino-2-ethyl-4-{3-trifluoromethyl-4-[3-(4-trifluoromethylphenyl)propoxy]phenyl}butanol hydrochloride]	–	0.02 mg/kg	–	–
NC(/C=C/c1ccc(OCCCc2ccccc2F)c(C(F)(F)F)c1)(CO)COP(=O)(O)O (stereo not drawn) [compound 193-2, (E)-2-amino-4-{4-[3-(2-fluorophenyl)propoxy]-3-trifluoromethylphenyl}-2-(phosphoryloxymethyl)-3-butenol]	did not reduce the heart rate of the rat by 20% or more	–	–	–
Cc1cccc(CCCOc2ccc(CCC(N)(CO)CO)cc2C(F)(F)F)c1.Cl [Compound 15-4, 2-amino-2-(2-{4-[3-(3-methylphenyl)propoxy]-3-trifluoromethylphenyl}ethyl)propane-1,3-diol hydrochloride]	–	0.05 mg/kg	did not reduce the heart rate	0.03 mg/kg
Cl.NC(/C=C/c1ccc(OCCCc2ccccc2)c(C(F)(F)F)c1)(CO)CO [Compound 100-2, (E)-2-amino-2-{2-[4-(3-phenylpropoxy)-3-trifluoromethylphenyl]vinyl}propane-1,3-diol hydrochloride]	–	0.07 mg/kg	–	0.07 mg/kg
CCC(N)(CCc1ccc(OCCCc2cccc(OC(F)(F)F)c2)c(C(F)(F)F)c1)COP(=O)(O)O (stereo not drawn) [Compound 223-2, phosphoric acid mono(2-amino-2-ethyl-4-{4-[3-(3-trifluoromethoxyphenyl)propoxy]-3-trifluoromethylphenyl}butyl)ester]	did not reduce the heart rate of the rat by 20% or more	–	–	–
Cl.NC(/C=C/c1ccc(OCCCc2ccccc2F)c(C(F)(F)F)c1)(CO)CO [Compound 101-2, (E)-2-amino-2-(2-{4-[3-(2-fluorophenyl)propoxy]-3-trifluoromethylphenyl}vinyl)propane-1,3-diol hydrochloride]	–	–	–	0.1 mg/kg
CC(N)(CCc1ccc(OCCCc2ccc(Cl)c(Cl)c2)c(C(F)(F)F)c1)COP(=O)(O)O (stereo not drawn) [Compound 209-2, phosphoric acid mono(2-amino-4-{4-[3-(3,4-dichlorophenyl)propoxy]-3-trifluoromethylphenyl}-2-methylbutyl)ester]	did not reduce the heart rate of the rat by 20% or more	–	–	–
Cl.NC(CO)(CO)CCc1ccc(OC/C=C/c2cccc(Cl)c2)c(C(F)(F)F)c1 [Compound 89-2, 2-amino-2-(2-{4-[3-(3-chlorophenyl)allyloxy]-3-trifluoromethylphenyl}ethyl)propane-1,3-diol hydrochloride]	–	0.06 mg/kg	–	0.04 mg/kg
CC[C@](N)(CO)CCc1ccc(OCCCc2cccc(OC(F)(F)F)c2)c(C(F)(F)F)c1.Cl [Compound 220-2, (R)-2-amino-2-ethyl-4-{4-[3-(3-trifluoromethoxyphenyl)propoxy]-3-trifluoromethylphenyl}butanol hydrochloride]	–	0.03 mg/kg	–	–
Cl.NC(CO)(CO)CCc1ccc(OCCCc2ccc(C(F)(F)F)cc2)c(C(F)(F)F)c1 [Compound 11-4, 2-amino-2-(2-{3-trifluoromethyl-4-[3-(4-trifluoromethylphenyl)propoxy]phenyl}ethyl)propane-1,3-diol hydrochloride]	–	0.09 mg/kg	did not reduce the heart rate	0.06 mg/kg
Cl.NC(CO)(CO)CCc1ccc(OCCCc2ccc(Cl)c(Cl)c2)c(C(F)(F)F)c1 [Compound 38-5, 2-amino-2-(2-{4-[3-(3,4-dichlorophenyl)propoxy]-3-trifluoromethylphenyl}ethyl)propane-1,3-diol hydrochloride]	–	0.07 mg/kg	did not reduce the heart rate	0.07 mg/kg
NC(CO)(CCc1ccc(OCCCc2ccc(C(F)(F)F)c(F)c2)c(C(F)(F)F)c1)COP(=O)(O)O (stereo not drawn) [Compound 168-2, 2-amino-4-{4-[3-(3-fluoro-4-trifluoromethylphenyl)propoxy]-3-trifluoromethylphenyl}-2-(phosphoryloxymethyl)butanol]	did not reduce the heart rate of the rat by 20% or more	–	–	–
Cl.NC(CO)(CO)CCc1ccc(OCCCc2ccc(OC(F)(F)F)cc2)c(C(F)(F)F)c1 [Compound 52-5, 2-amino-2-(2-{4-[3-(4-trifluoromethoxyphenyl)propoxy]-3-trifluoromethylphenyl}ethyl)propane-1,3-diol hydrochloride]	–	0.05 mg/kg	did not reduce the heart rate	0.08 mg/kg
CC[C@](N)(CO)CCc1ccc(OCCCc2ccc(Cl)c(Cl)c2)c(C(F)(F)F)c1.Cl [Compound 206-3, (R)-2-amino-4-{4-[3-(3,4-dichlorophenyl)propoxy]-3-trifluoromethylphenyl}-2-ethylbutanol hydrochloride]	–	0.05 mg/kg	–	0.02 mg/kg
CC[C@](N)(CO)CCc1ccc(OCCCc2ccc(OC(F)(F)F)cc2)c(C(F)(F)F)c1.Cl [Compound 218-2, (R)-2-amino-2-ethyl-4-{4-[3-(4-trifluoromethoxyphenyl)propoxy]-3-trifluoromethylphenyl}butanol hydrochloride]	–	0.03 mg/kg	–	–
C[C@@](N)(CCc1ccc(OCCCc2ccc(C(F)(F)F)cc2)c(C(F)(F)F)c1)COP(=O)(O)O [Compound 132-2, (R)-phosphoric acid mono(2-amino-2-methyl-4-{3-trifluoromethyl-4-[3-(4-trifluoromethylphenyl)propoxy]phenyl}butyl)ester]	did not reduce the heart rate of the rat by 20% or more	–	–	–
Cl.NC(CO)(CO)CCc1ccc(OCCCc2cccc(OC(F)(F)F)c2)c(C(F)(F)F)c1 [Compound 58-5, 2-amino-2-(2-{4-[3-(3-trifluoromethoxyphenyl)propoxy]-3-trifluoromethylphenyl}ethyl)propane-1,3-diol hydrochloride]	–	0.07 mg/kg	–	0.06 mg/kg
Cl.NC(CO)(CO)CCc1ccc(OCCCc2ccc(C(F)(F)F)c(F)c2)c(C(F)(F)F)c1 [Compound 68-4, 2-amino-2-(2-{4-[3-(3-fluoro-4-trifluoromethylphenyl)propoxy]-3-trifluoromethylphenyl}ethyl)propane-1,3-diol hydrochloride]	–	0.09 mg/kg	–	0.04 mg/kg
CCC(N)(CCc1ccc(OCCCc2ccc(OC(F)(F)F)cc2)c(C(F)(F)F)c1)COP(=O)(O)O (stereo not drawn) [Compound 221-2, phosphoric acid mono(2-amino-2-ethyl-4-{4-[3-(4-trifluoromethoxyphenyl)propoxy]-3-trifluoromethylphenyl}butyl)ester]	did not reduce the heart rate of the rat by 20% or more	–	–	–
NC(CO)(CCc1ccc(OCCCc2cccc(OC(F)(F)F)c2)c(C(F)(F)F)c1)COP(=O)(O)O (stereo not drawn) [Compound 158-2, 2-amino-2-(phosphoryloxymethyl)-4-{4-[3-(3-trifluoromethoxyphenyl)propoxy]-3-trifluoromethylphenyl}butanol]	did not reduce the heart rate of the rat by 20% or more	–	–	–
